Test results: patent publication US7112677B2, “1H-imidazo dimers” (3M Innovative Properties Company, priority 2002, dated 2006)

How the values were obtained:
[1] = tested on: interferon (α); experiment: Cytokine Induction in Human Cells: interferon (α) by ELISA; format: cell-based; conditions: human PBMC, incubated 18 to 24 hours, tested at 30–0.014 μM; induction at ≦10 μM
Excerpt: (§1) An in vitro human blood cell system is used to assess cytokine induction. Activity is based on the measurement of interferon and tumor necrosis factor (α) (IFN and TNF, respectively) secreted into culture media as described by Testerman et. al. In “Cytokine Induction by the Immunomodulators Imiquimod and S-27609”, Journal of Leukocyte Biology, 58, 365–372 (September, 1995).
(§2) Whole blood from healthy human donors is collected by venipuncture into EDTA vacutainer tubes. Peripheral blood mononuclear cells (PBMC) are separated from whole blood by density gradient centrifugation using Histopaque®-1077. Blood is diluted 1:1 with Dulbecco's Phosphate Buffered Saline (DPBS) or Hank's Balanced Salts Solution (HBSS). The PBMC layer is collected and washed twice with DPBS or HBSS and resuspended at 4×10^6 cells/mL in RPMI complete. The PBMC suspension is added to 48 well flat bottom sterile tissue culture plates (Costar, Cambridge, Mass. or Becton Dickinson Labware, Lincoln Park, N.J.) containing an equal volume of RPMI complete media containing test compound.
(§3) The compounds are solubilized in dimethyl sulfoxide (DMSO). The DMSO concentration should not exceed a final concentration of 1% for addition to the culture wells. The compounds are generally tested at concentrations ranging from 30–0.014 μM.
(§4) The solution of test compound is added at 60 μM to the first well containing RPMI complete and serial 3 fold dilutions are made in the wells. The PBMC suspension is then added to the wells in an equal volume, bringing the test compound concentrations to the desired range (30–0.014 μM). The final concentration of PBMC suspension is 2×10^6 cells/mL. The plates are covered with sterile plastic lids, mixed gently and then incubated for 18 to 24 hours at 37° C. in a 5% carbon dioxide atmosphere.
(§5) Following incubation the plates are centrifuged for 10 minutes at 1000 rpm (˜200×g) at 4° C. The cell-free culture supernatant is removed with a sterile polypropylene pipet and transferred to sterile polypropylene tubes. Samples are maintained at −30 to −70° C. until analysis. The samples are analyzed for interferon (a) by ELISA and for tumor necrosis factor (α) by ELISA or IGEN Assay.
Interferon (α) concentration is determined by ELISA using a Human Multi-Species kit from PBL Biomedical Laboratories, New Brunswick, N.J. Results are expressed in pg/mL.

[2] = tested on: tumor necrosis factor (α); experiment: Cytokine Induction in Human Cells: tumor necrosis factor (α) by ELISA or IGEN Assay; format: cell-based; conditions: human PBMC, incubated 18 to 24 hours, tested at 30–0.014 μM; induction at ≦10 μM
Excerpt: as §1, §2, §3, §4, §5
Tumor necrosis factor (α) (TNF-α) concentration is determined using ELISA kits available from Biosource International, Camarillo, Calif. Alternately, the TNF-α concentration can be determined by Origen® M-Series Immunoassay and read on an IGEN M-8 analyzer from IGEN International, Gaithersburg, Md. The immunoassay uses a human TNF-α capture and detection antibody pair from Biosource International, Camarillo, Calif. Results are expressed in pg/mL.

[3] = Solubility in DMSO for testing; format: physicochemical; set-up: key: *: the compound was not adequately soluble in DMSO to permit testing; conditions: printed as * in the cytokine columns
Experimental: as §3
Compounds of the invention were tested for their ability to induce cytokine biosynthesis using the method described above.

Compound | melting point [°C] | adequately soluble in DMSO to permit testing [3] | Interferon (α) [1] | Tumor Necrosis Factor (α) [2]
CCCCc1nc2c(N)nc3ccccc3c2n1CCCCNC(=O)Nc1ccc(Oc2ccc(NC(=O)NCCCCn3c(CCCC)nc4c(N)nc5ccccc5c43)cc2)cc1 [Example 3, N-[4-(4-amino-2-butyl-1H-imidazo[4,5-c]quinolin-1-yl)butyl]-N′-(4-{4-[({[4-(4-amino-2-butyl-1H-imidazo[4,5-c]quinolin-1-yl)butyl]amino}carbonyl)amino]phenoxy}phenyl)urea] | 152.1 to 156.1 | – | + (at concentrations of ≦10 μM the compound induced the indicated cytokine) | + (at concentrations of ≦10 μM the compound induced the indicated cytokine)
CCCCc1nc2c(N)nc3ccccc3c2n1CCCCNC(=O)Nc1cccc(NC(=O)NCCCCn2c(CCCC)nc3c(N)nc4ccccc4c32)c1 [Example 2, N,N″-1,3-phenylenebis{N′-[4-(4-amino-2-butyl-1H-imidazo[4,5-c]quinolin-1-yl)butyl]urea}] | 160.3 to 165.6 | – | + (at concentrations of ≦10 μM the compound induced the indicated cytokine) | + (at concentrations of ≦10 μM the compound induced the indicated cytokine)
CCCCc1nc2c(N)nc3ccccc3c2n1CCCCNC(=O)NCCCCn1c(CCCC)nc2c(N)nc3ccccc3c21 [Example 1, N,N′-bis[4-(4-amino-2-butyl-1H-imidazo[4,5-c]quinolin-1-yl)butyl]urea] | 218.1 to 219.7 | – | + (at concentrations of ≦10 μM the compound induced the indicated cytokine) | + (at concentrations of ≦10 μM the compound induced the indicated cytokine)
COCCc1nc2c(N)nc3ccccc3c2n1CCOCCNC(=O)c1ccc(C(=O)NCCOCCn2c(CCOC)nc3c(N)nc4ccccc4c32)cc1 [Example 6, N,N′-bis(2-{2-[4-amino-2-(2-methoxyethyl)-1H-imidazo[4,5-c]quinolin-1-yl]ethoxy}ethyl)terephthalamide] | – | – | + (at concentrations of ≦10 μM the compound induced the indicated cytokine) | + (at concentrations of ≦10 μM the compound induced the indicated cytokine)
CCCCc1nc2c(N)nc3ccccc3c2n1CCCCNC(=O)N[C@H]1CC[C@H](NC(=O)NCCCCn2c(CCCC)nc3c(N)nc4ccccc4c32)CC1 [Example 4, N,N″-trans-1,4-cyclohexylenebis{N′-[4-(4-amino-2-butyl-1H-imidazo[4,5-c]quinolin-1-yl)butyl]urea}] | 184.5 to 188.8 | – | + (at concentrations of ≦10 μM the compound induced the indicated cytokine) | + (at concentrations of ≦10 μM the compound induced the indicated cytokine)

Now from value to molecule, other results behind:

melting point [°C] | adequately soluble in DMSO to permit testing [3] | Compound | Interferon (α) [1] | Tumor Necrosis Factor (α) [2]
237 to 238 | * | CCOCc1nc2c(N)nc3ccccc3c2n1CCCCCCCCCCn1c(COCC)nc2c(N)nc3ccccc3c21 [Example 8, 1-[10-(4-amino-2-ethoxymethyl-1H-imidazo[4,5-c]quinolin-1-yl)decyl]-2-ethoxymethyl-1H-imidazo[4,5-c]quinoline-4-amine] | – | –
172.5 to 177 | – | COCCc1nc2c(N)nc3ccccc3c2n1CCOCCNC(=O)NCCCCCCCCNC(=O)NCCOCCn1c(CCOC)nc2c(N)nc3ccccc3c21 [Example 7, N,N″-1,8-octanediylbis[N′-(2-{2-[4-amino-2-(methoxyethyl)-1H-imidazo[4,5-c]quinolin-1-yl]ethoxy}ethyl)urea]] | + (at concentrations of ≦10 μM the compound induced the indicated cytokine) | + (at concentrations of ≦10 μM the compound induced the indicated cytokine)
115 to 120 | – | COCCc1nc2c(N)nc3ccccc3c2n1CCOCCNS(=O)(=O)c1cccc(S(=O)(=O)NCCOCCn2c(CCOC)nc3c(N)nc4ccccc4c32)c1 [Example 5, N,N-bis(2-{2-[4-amino-2-(2-methoxyethyl)-1H-imidazo[4,5-c]quinolin-1-yl]ethoxy}ethyl)benzene-1,3-disulfonamide] | + (at concentrations of ≦10 μM the compound induced the indicated cytokine) | + (at concentrations of ≦10 μM the compound induced the indicated cytokine)
